Laboratory results from publication PMC8042770, “Odorant Receptors for Detecting Flowering Plant Cues Are Functionally Conserved across Moths and Butterflies” (Molecular Biology and Evolution, 2020).

Legend:
[1] = system: HarmOR repertoire; experiment: Responses of the 28 functional HarmORs across odorant doses (PCA of oocyte currents); type: cell-based, Helicoverpa armigera; conditions: odorant 10^−7 M
Source text: Vectors quantifying the responses of the 28 ORs to each odorant were projected onto a 3D landscape. This 3D representation captured 78.34% (10^−4 M), 65.11% (10^−5 M), 68.89% (10^−6 M), and 84.52% (10^−7 M) of the variation in the original 28D data set across different odorant concentrations. […] In addition, the capacity of the H. armigera odor space was highly dependent on odorant concentration. As the concentrations of odorants decreased, their positions in the odor space converged, with the ability to discriminate different odorants diminishing.
Functional characterization of individual ORs was performed by heterologous expression in Xenopus oocytes combined with a two-electrode voltage-clamp system ([Wang et al. 2010]). Briefly, the full-length gene of each OR and Orco were subcloned into the eukaryotic expression vector pT7TS. cRNAs were generated from linearized expression vectors using the mMESSAGE mMACHINE T7 kit (Ambion, Austin, TX). Then, the cRNA mixture of ORx and Orco (27.6 ng each) was injected (Nanoliter 2010, WPI Inc., Sarasota, FL) into oocytes (stage V–VII). The respective Orcos of different species were used for functional studies of OR42 orthologs except for the four butterfly species (V. tameamea, P. xuthus, D. plexippus, and P. rapae), in which we used the Orco from P. xuthus. After incubation in nutrient solution at 18 °C for 3–5 days, the response profile of each oocyte to multiple plant odorants was recorded via a two-electrode voltage clamp (OC-725C oocyte clamp, Warner Instruments, Hamden, CT) at a holding potential of −80 mV. Data were acquired by using a Digidata 1440 A and were analyzed by pCLAMP 10.2 software (Axon Instruments Inc., Union City, CA).
Stock solutions of each odorant were prepared at 1 M using DMSO as a solvent, and each odorant was diluted in 1× Ringer’s solution to the indicated concentrations for electrophysiological recording. For functional screening of each HarmOR, a panel of 67 odorants belonging to three types of chemical classes: terpenes, aromatics, and aliphatics (short-chain fatty acid) were used (supplementary table S1, Supplementary Material online). For functional studies of OR42 orthologs from different species, six odorants including PAA, benzaldehyde, (E)-2-hexen-1-al, cinnamaldehyde, 2-phenylethanol, and heptanal were used.
Graphs and data statistics of OR response spectra, dose responses, EAG, and behavioral experiments were generated by Prism 7 (GraphPad Software, La Jolla, CA). A heat map was generated in Excel 2010 (Microsoft Corporation, WA). […] For tuning breadth analysis, the kurtosis values (K) were calculated by SPSS 22 (SPSS Inc., Chicago, IL) and were used to define the tuning spectra width, where smaller K values represent broader tuning spectra (fig. 1B). […]

[2] = system: H. armigera moth antennae; experiment: Electroantennography (EAG), wild-type vs HarmOR42 knock-out moths; type: in vivo, Helicoverpa armigera; conditions: single odorants, 1 μg
Source text: We next conducted a loss-of-function study by generating a HarmOR42-lacking H. armigera strain by CRISPR/Cas9 targeting the first coding exon. Homozygous mutants were obtained with a large segment deletion of 203 bp and a 6-bp nonhomologous insertion in the genome (fig. 6B), introducing a premature stop codon in the coding sequence. […] The most likely hypothesis is that HarmOR42 is not the major receptor for sensing this compound in H. armigera. As a control, we tested the response of male moths to the sex pheromone component Z11-16: Ald that is not a ligand of HarmOR42. As expected, we observed no difference between the EAG responses of mutant and wild-type moths to this compound.
The antennae of 2- to 3-day-old virgin male and female moths were cut at the base of the flagellum. After removing the tip, one antenna was inserted between two glass electrodes filled with 0.1 M KCl solution. In each test, a 10-μl solution of each odorant was added onto a piece of filter paper (0.5 cm × 0.5 cm) and then inserted into a Pasteur pipette. About 100 ng/μl stock solutions of individual odorants and different doses of the mixture IAC were prepared with paraffin oil. A continuous airflow of 30 ml/s was produced by a stimulus controller (CS-55, Syntech, Kirchzarten, Germany). Odor stimulation was controlled by a puff of purified air (0.2 s at 10 ml/s airflow) from the CS-55. EAG signals were amplified with a 10× AC/DC headstage preamplifier (Syntech) and further acquired with an Intelligent Data Acquisition Controller (IDAC-4-USB, Syntech) ([Cao et al. 2016]). The signals were recorded, monitored, and analyzed using Syntech EAG-software (Syntech, Germany). The EAG response values for each compound were calculated by subtracting the value of the same antennae corresponding to a solvent blank of paraffin oil.

[3] = system: H. armigera third instar larvae; experiment: Petri dish choice assay, third instar larvae; type: in vivo, Helicoverpa armigera
Protocol: Our results provide strong evidence that PAA, via its detection by HarmOR42, is an important host plant cue in both larval and adult stages of H. armigera.
For assessing larval behavior to PAA, the experiments were performed in closed plastic Petri dishes of 15 cm diameter (fig. 6D) as in [Poivet et al. (2013)] with some modifications. To ascertain the choice zone, we tracked the behavior trajectory of larvae to a regular diet. A piece of regular diet nutrition was placed at one of the opposite ends of the dish along the diameter. Ten third instar larvae were placed in the middle of the dish. The location of larvae was marked every 10 min for 1 h. Four replications were performed. Most of the larvae made choices within 40 min, so this time point was selected for choice statistics. For the choice behavior test, PAA and paraffin oil (solvent) were respectively added onto a piece of 1 × 1 cm filter paper and the papers were arranged at opposite ends. The two-choice zones were delineated by 4-cm radius half circles centered at each of the filter papers. The choice indexes (CI) were calculated using the formula: CI = (P − C)/T, where P represents the number of larvae that entered the PAA choice zone, C represents the number of larvae that entered the solvent zone, and T represents the total number of larvae in the test (ten larvae). We first determined the efficient test dose using three different dilutions of PAA (0.1, 1, and 10 μg) against wild-type larvae. The CI of larvae to PAA was compared with a blank (solvent on each side of the dish). […] Therefore, we used 1 μg of PAA to test the choice behavior of mutant larvae. Ten replicates were performed for each test.

**Q.** `O=CCc1ccccc1` [Phenylacetaldehyde] was tested. Which “response of the HarmOR repertoire” value [1] did it give?
**A.** still responded

**Q.** What about the “EAG response of HarmOR42 knock-out mutants compared with wild-type moths” value [2] of the same molecule?
**A.** significantly decreased

**Q.** And the “preference of HarmOR42 knock-out mutant larvae” value ([3]; third instar, knock-out, 1 μg)?
**A.** lost their preference

**Q.** What about the “attractive effect on wild-type larvae” value ([3]; third instar, wild type, 1 μg, 40 min) of the same molecule?
**A.** significantly attracted

**Q.** What about the “dose giving the most positive choice” value ([3]; wild-type larvae, 0.1, 1 and 10 μg tested) of the same molecule?
**A.** 1 µg
